# Source: paper PMC4381330, “Identification of a novel selective agonist of PPARγ with no promotion of adipogenesis and less inhibition of osteoblastogenesis” (Scientific Reports, 2015)
# Legend:
# [1] = biological target: T1, PPARγ Y473A (Homo sapiens, UniProt P37231, Y501A); assay: Y473A assay (PPARγ reporter gene assay with Tyr473 of pBIND-PPARγ-LBD mutated into alanine); type: cell-based
# T1 construct: expressed in transfected cells; host or cells: HEK293T
# T1 sequence (P37231 172-476 isoform P37231-2 Y473A): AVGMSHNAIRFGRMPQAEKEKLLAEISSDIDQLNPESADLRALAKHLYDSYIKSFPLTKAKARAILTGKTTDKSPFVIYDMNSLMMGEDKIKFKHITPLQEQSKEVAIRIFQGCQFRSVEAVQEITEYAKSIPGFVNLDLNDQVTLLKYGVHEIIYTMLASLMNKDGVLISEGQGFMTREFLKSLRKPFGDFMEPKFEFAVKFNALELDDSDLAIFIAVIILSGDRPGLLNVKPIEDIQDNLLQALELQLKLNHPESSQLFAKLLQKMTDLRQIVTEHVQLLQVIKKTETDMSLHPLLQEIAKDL
# Procedure: All chemicals were purchased from Sigma-Aldrich (St. Louis, MO, USA). All medium and serum were obtained from Gibco (Invitrogen). The wild-type gene of human PPARγ-LBD (amino acids 172–476) was obtained by PCR and cloned into pBIND vector (Promega). Mutations in pBIND-PPARγ-LBD were created by site-directed mutagenesis using the Fast Mutagenesis System (TransGen Biotech, Beijing, China).
# The determination of nuclear receptor activation was performed as previously. Briefly, HEK293T cells were transfected with GAL4-pGL4-luc reporter plasmid and pBIND-PPARγ-LBD expression plasmid using Lipofectamine 2000 (Invitrogen) for 6 h before treatment with compounds for 20–24 h. Activity was determined by the Luciferase Assay System (Promega).
# Supplementary Figure 1: Workflow of virtual screening and the procedure used for selecting hits whose bioactivity was experimentally tested. We developed a virtual screening workflow by Discovery Studio 4.0 software to identify selective agonists of PPARγ. The key steps of this workflow is the two pharmacophore models. One is the antipharmacophore model which excludes compounds whose structure are similar to known full agonists, the other one is the pharmacophore model which identifies selective agonists. Biological assays were performed after virtual steps to further screen leads. […]
# [2] = tested on: diabetic KKAy mice; assay: Diabetic KKAy mice, 21 days treatment (fasting blood glucose, OGTT, ITT, body weight)
# Procedure: Fasting blood glucose was measured with Onetoch Ultra Teststrip (Johnson & Johnson) at day 0, 3, 7, 14, 21, and body weight were monitored during these days.
# After 14 days of treatment, oral glucose tolerance test (OGTT) was performed. Mice were fasted for 6 h with free access to water. 2 g/kg of glucose was given by gavage and blood glucose was measured at 0, 30, 60, 90, and 120 min.
# After 21 days of feeding, insulin tolerance test (ITT) was carried out. Mice were fasted for 4 h before being injected 1 U/kg of recombinant human insulin (Novo Nordisk) subcutaneously, and blood glucose was measured at 0, 40, 90, and 120 min after insulin injection.
# [3] = tested on: L02 normal hepatocytes; assay: 2-NBDG glucose uptake assay in L02 cells; type: cell-based; settings: 24 h, absence or presence of insulin
# Procedure: Glucose uptake activity was determined by measuring the uptake of 2-NBDG (2-(N-(7-nitrobenz-2-oxa-1, 3-diazol-4-yl)amino)-2-deoxyglucose, Invitrogen). […] Glucose uptake was initiated by addition of 1 mM 2-NBDG diluted in PBS. After 1 h, it was terminated by removing the contents of the wells and washing the cells with PBS. The glucose uptake was quantified by measuring the fluorescence intensity of cell lysates (prepared with neutral lysis buffer) at 485 nm excitation and 528 nm emission, and normalized to the corresponding protein content.
substance,measurement,setting,value
"2-[2-(1, 2-dimethyl-1H-indol-3-yl)-2-oxo-acetylamino]-benzamide [Compound F12016]",EC50,[1],5.21 µM
same,PPARγ Y473A (RGZ %),[1]; activation relative to rosiglitazone (RGZ),29.12%
same,fasting blood glucose,"[2]; F12016 75 mg/kg by gavage once daily, day 3, 7, 14 and 21, vs vehicle",significantly reduced fasting blood glucose
same,glucose tolerance (OGTT),"[2]; after 14 days of treatment, 2 g/kg glucose, F12016 75 mg/kg",significantly improved glucose tolerance
same,blood glucose after insulin injection (ITT),"[2]; after 21 days, insulin 1 IU/kg, F12016 75 mg/kg, rosiglitazone 5 mg/kg",significantly reduced blood glucose
same,average body weight,"[2]; after 21 days, F12016 75 mg/kg, rosiglitazone 5 mg/kg, vs vehicle",much lower than that of vehicle controls
same,insulin sensitivity and glucose transport (2-NBDG),[3],significantly increased insulin sensitivity and promoted glucose transport
